What follows are compounds tested against T1, hTRPC5 (Homo sapiens, UniProt Q9UL62) (assay: TRPC5 inhibitory activity assay (FLIPR calcium fluorescence, Englerin A stimulation)). Conditions: Table 1, TRPC5 channels, HEK-293 cells expressing hTRPC5; read-out: FLIPR IC50.
T1 construct: expressed in transfected cells; host or cells: HEK-293
T1 sequence (Q9UL62 1-973): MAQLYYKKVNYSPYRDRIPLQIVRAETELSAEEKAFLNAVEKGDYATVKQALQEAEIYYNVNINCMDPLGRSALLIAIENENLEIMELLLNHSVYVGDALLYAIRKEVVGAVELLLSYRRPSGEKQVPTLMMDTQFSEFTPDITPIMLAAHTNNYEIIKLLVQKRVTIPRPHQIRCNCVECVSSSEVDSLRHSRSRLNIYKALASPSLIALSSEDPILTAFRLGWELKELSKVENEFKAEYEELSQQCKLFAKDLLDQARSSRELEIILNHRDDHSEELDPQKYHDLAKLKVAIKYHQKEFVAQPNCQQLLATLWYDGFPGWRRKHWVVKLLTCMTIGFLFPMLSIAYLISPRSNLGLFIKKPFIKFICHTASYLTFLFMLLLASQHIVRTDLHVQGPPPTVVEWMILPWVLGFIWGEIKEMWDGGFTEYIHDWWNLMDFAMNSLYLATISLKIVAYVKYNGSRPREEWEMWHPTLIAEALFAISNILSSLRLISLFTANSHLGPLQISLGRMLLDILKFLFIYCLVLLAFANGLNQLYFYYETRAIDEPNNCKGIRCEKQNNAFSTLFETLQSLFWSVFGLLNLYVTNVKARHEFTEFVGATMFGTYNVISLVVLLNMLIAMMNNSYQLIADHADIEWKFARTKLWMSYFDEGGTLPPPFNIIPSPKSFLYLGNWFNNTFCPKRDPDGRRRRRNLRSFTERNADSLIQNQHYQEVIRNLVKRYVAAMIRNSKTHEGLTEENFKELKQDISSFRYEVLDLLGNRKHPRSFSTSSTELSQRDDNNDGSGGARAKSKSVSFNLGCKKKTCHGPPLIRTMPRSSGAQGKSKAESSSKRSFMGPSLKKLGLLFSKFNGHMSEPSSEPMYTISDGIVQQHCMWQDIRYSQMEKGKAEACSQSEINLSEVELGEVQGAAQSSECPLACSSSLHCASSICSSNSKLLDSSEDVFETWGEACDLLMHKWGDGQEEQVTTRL
Assay type: cell-based
Method: HEK-293 cells expressing hTRPC3, hTRPC4 or hTRPC5 were seeded into black-bottomed 96-well plates coated with poly-lysine (PDL), with 2×10^4 cells per well. After 8 h of culture, the original culture medium was discarded, and 60 µL of Fluo-4/AM dye with a final concentration of 4 µM was added. The plates were incubated at 37 °C for 60 min, and then rinsed five times with calcium flow detection buffer. […] Then, the agonist Englerin A (EA) (MedChemExpress, Shanghai, China, final concentration of 0.3nM) was added, and the fluorescence signal was collected for 600 seconds. The fluorescence signal of the trajectory diagram is represented by F/F0, wherein F is the fluorescence signal at different time points, and F0 is the basic fluorescence signal, that is, the average value of the fluorescence signal at the first 10 time points. […] The area under the curve of the change in fluorescence intensity after adding EA was calculated. IC50 value was calculated using log[Inhibitor] vs. response - Variable slope, taking into account the area under the curve and the log value of the concentration of the compound.

SMILES	IC50
Cn1c(=O)n(CCCO)c(=O)c2c1nc(/C=N/OC(C)(C)C)n2Cc1ccc(Cl)cc1 [Example E18, (E)-7-(4-chlorobenzyl)-1-(3-hydroxypropyl)-3-methyl-2,6-dioxo-2,3,6,7-tetrahydro-1H-purine-8-carbaldehyde-O-(tert-butyl)oxime]	43.8 nM
Cn1c(=O)n(CCCO)c(=O)c2c1nc(C1=CCC(C(F)(F)F)CC1)n2Cc1ccc(Cl)cc1 (stereo not drawn) [Example E41, 7-(4-chlorobenzyl)-1-(3-hydroxypropyl)-3-methyl-8-(4-(trifluoromethyl)cyclohex-1-en-1-yl)-3,7-dihydro-1H-purine-2,6-dione]	55.5 nM
CC(C)OC1CC=C(c2nc3c(c(=O)n(CCCO)c(=O)n3C)n2Cc2ccc(Cl)cc2)CC1 (stereo not drawn) [Example E8, 7-(4-chlorobenzyl)-1-(3-hydroxypropyl)-8-(4-isopropoxycyclohex-1-en-1-yl)-3-methyl-3,7-dihydro-1H-purine-2,6-dione]	19.3 nM
Cn1c(=O)n(CCCO)c(=O)c2c1cc(C1=CCCC1)n2Cc1ccc(Cl)cc1 [Example E1, 5-(4-chlorobenzyl)-6-(cyclopent-1-en-1-yl)-3-(3-hydroxypropyl)-1-methyl-1,5-dihydro-2H-pyrrolo[3,2-d]pyrimidine-2,4(3H)-dione]	69.4 nM
C/C(=N\OC(C)(C)C)c1nc2c(c(=O)n(CCCO)c(=O)n2C)n1Cc1ccc(Cl)cc1 [Example E27, (E)-8-(1-(tert-butoxyimino)ethyl)-7-(4-chlorobenzyl)-1-(3-hydroxypropyl)-3-methyl-3,7-dihydro-1H-purine-2,6-dione]	64.7 nM
Cn1c(=O)n(CCCO)c(=O)c2c1cc(C1CCCC1)n2Cc1ccc(Cl)cc1 [Example E2, 5-(4-chlorobenzyl)-6-cyclopentyl-3-(3-hydroxypropyl)-1-methyl-1,5-dihydro-2H-pyrrolo[3,2-d]pyrimidine-2,4(3H)-dione]	112 nM
CCn1c(=O)n(CCCO)c(=O)c2c1nc(C1(F)CCC(C(F)(F)F)CC1)n2Cc1ccc(Cl)c(F)c1 (stereo not drawn) [Example E51, 7-(4-chloro-3-fluorobenzyl)-3-ethyl-8-(1-fluoro-4-(trifluoromethyl)cyclohexyl)-1-(3-hydroxypropyl)-3,7-dihydro-1H-purine-2,6-dione]	3.19 nM

Results, then the compound that gave them:

IC50	SMILES
18.9 nM	Cn1c(=O)n(CCCO)c(=O)c2c1nc(C1(F)CCC(C(F)(F)F)CC1)n2Cc1ccc(F)cc1Cl (stereo not drawn) [Example E67, 7-(2-chloro-4-fluorobenzyl)-8-(1-fluoro-4-(trifluoromethyl)cyclohexyl)-1-(3-hydroxypropyl)-3-methyl-3,7-dihydro-1H-purine-2,6-dione]
1.88 nM	Cn1c(=O)n(CCCO)c(=O)c2c1nc(C1(F)CCC(C(F)(F)F)CC1)n2Cc1ccc(C#N)cc1 (stereo not drawn) [Example E73, 4-((8-(1-fluoro-4-(trifluoromethyl)cyclohexyl)-1-(3-hydroxypropyl)-3-methyl-2,6-dioxo-1,2,3,6-tetrahydro-7H-purin-7-yl)methyl)benzonitrile]
281 nM	CCC1CCC(F)(c2nc3c(c(=O)n(CCCO)c(=O)n3C)n2Cc2ccc(Cl)cc2)CC1 (stereo not drawn) [Example E30, 7-(4-chlorobenzyl)-8-(4-ethyl-1-fluorocyclohexyl)-1-(3-hydroxypropyl)-3-methyl-3,7-dihydro-1H-purine-2,6-dione]
3.7 nM	Cn1c(=O)n(CCCO)c(=O)c2c1nc(C1(F)CCC(C#N)CC1)n2Cc1ccc(Cl)cc1 (stereo not drawn) [Example E40, 4-(7-(4-chlorobenzyl)-1-(3-hydroxypropyl)-3-methyl-2,6-dioxo-2,3,6,7-tetrahydro-1H-purin-8-yl)-4-fluorocyclohexane-1-carbonitrile]
4.63 nM	CC1CCC(F)(c2nc3c(c(=O)n(CCCO)c(=O)n3C)n2Cc2ccc(Cl)cc2)CC1 (stereo not drawn) [Example E39, 7-(4-chlorobenzyl)-8-(1-fluoro-4-methylcyclohexyl)-1-(3-hydroxypropyl)-3-methyl-3,7-dihydro-1H-purine-2,6-dione]

Source: patent EP4663640A1 (Shanghai Institute of Materia Medica, Chinese Academy of …, priority 2023, dated 2024)
